According to patent US6737383B1, “Herbicidal oxadiazolidines” (priority 1999, dated 2004):

Legend:
[1] = test system: bedstraw; test: Test B pre/postemergence bedstraw; assay type: in vivo, Galium aparine
Summary of the method: (§1)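 Herbicidal effect was estimated by eye on a ten-point control scale after plants spent twelve to sixteen days in a greenhouse following soil or foliar treatment. Foliar sprays targeted plants at one to four leaves; all doses were formulated in a non-phytotoxic solvent with surfactant.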

[2] = test system: blackgrass; test: Test B pre/postemergence blackgrass; assay type: in vivo, Alopecurus myosuroides
Summary of the method: as §1

[3] = test system: surinam grass; test: Test B pre/postemergence surinam grass; assay type: in vivo, Brachiaria decumbens
Summary of the method: as §1

[4] = test system: corn; test: Test B pre/postemergence corn; assay type: in vivo, Zea mays
Summary of the method: as §1

[5] = test system: crabgrass; test: Test B pre/postemergence crabgrass; assay type: in vivo, Digitaria sanguinalis
Summary of the method: as §1

[6] = test system: giant foxtail; test: Test B pre/postemergence giant foxtail; assay type: in vivo, Setaria faberii
Summary of the method: as §1

[7] = test system: morningglory; test: Test B pre/postemergence morningglory; assay type: in vivo, Ipomoea hederacea
Summary of the method: as §1

[8] = test system: pigweed; test: Test B pre/postemergence pigweed; assay type: in vivo, Amaranthus retroflexus
Summary of the method: as §1

[9] = test system: rape; test: Test B pre/postemergence rape; assay type: in vivo, Brassica napus
Summary of the method: as §1

[10] = test system: soybean; test: Test B pre/postemergence soybean; assay type: in vivo, Glycine max
Summary of the method: as §1

[11] = test system: velvetleaf; test: Test B pre/postemergence velvetleaf; assay type: in vivo, Abutilon theophrasti
Summary of the method: as §1

[12] = test system: wheat; test: Test B pre/postemergence wheat; assay type: in vivo, Triticum aestivum
Summary of the method: as §1

[13] = test system: wild oat; test: Test B pre/postemergence wild oat; assay type: in vivo, Avena fatua
Summary of the method: as §1

[14] = test system: purple nutsedge; test: Test B pre/postemergence purple nutsedge; assay type: in vivo, Cyperus rotundus
Summary of the method: as §1

[15] = test system: rice; test: Test B flood test rice; assay type: in vivo, Oryza sativa
Summary of the method: (§2)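 Plants were grown to the 2-leaf stage before treatment with test chemical, then held in a greenhouse for twelve to sixteen days. Injury was visually rated against untreated controls on a 0–10 scale, where 0 is no effect and 10 is complete control.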

[16] = test system: duck salad; test: Test B flood test duck salad; assay type: in vivo, Heteranthera limosa
Summary of the method: as §2

[17] = Postemergence, Rate 62 g/ha, scale 0 to 10, 0 is no effect, 10 is complete control
[18] = Postemergence, Rate 250 g/ha, scale 0 to 10, 0 no effect, 10 complete control
[19] = Preemergence, Rate 62 g/ha, scale 0 to 10, 0 is no effect, 10 is complete control
[20] = Preemergence, Rate 125 g/ha, scale 0 to 10 (0 no effect, 10 complete control)
[21] = Preemergence, Rate 250 g/ha, scale of 0 to 10 where 0 is no effect and 10 is complete control
[22] = Preemergence, Rate 500 g/ha, scale 0 (no effect) to 10 (complete control)
[23] = Rate 125 g/ha, Postemergence, scale 0 to 10, 0 no effect, 10 complete control
[24] = Rate 500 g/ha, Postemergence, scale 0 to 10, 0 no effect, 10 complete control
[25] = Rate 500 g/ha, listed under Postemergence (flood test species), scale 0 to 10, 0 no effect, 10 complete control
[26] = flood test, listed under Postemergence, Rate 250 g/ha, scale 0 to 10, 0 no effect, 10 complete control

What does the source list for `Cc1ccccc1-n1c(=O)on(C(=O)N(c2ccc(F)c(F)c2)C(C)C)c1=O` [Compound 48]?
Bedstraw plant response rating [1, 17]: 0; Bedstraw plant response rating [1, 18]: 0; Plant response rating, Bedstraw [1, 19]: 0; Plant response rating, Bedstraw [1, 20]: 0; Plant response rating, Bedstraw [1, 21]: 0; Bedstraw plant response rating [1, 22]: 0; Bedstraw plant response rating [1, 23]: 0; Blackgrass plant response rating [2, 17]: 0; Blackgrass plant response rating [2, 18]: 0; Plant response rating, Blackgrass [2, 19]: 0; Plant response rating, Blackgrass [2, 20]: 0; Plant response rating, Blackgrass [2, 21]: 2; Blackgrass plant response rating [2, 22]: 2; Blackgrass plant response rating [2, 23]: 0; Blackgrass plant response rating [2, 24]: 0; B. signalgrass plant response rating [3, 17]: 0; B. signalgrass plant response rating [3, 18]: 0; Plant response rating, B. signalgrass [3, 19]: 0; Plant response rating, B. signalgrass [3, 20]: 0; Plant response rating, B. signalgrass [3, 21]: 0; B. signalgrass plant response rating [3, 22]: 0; B. signalgrass plant response rating [3, 23]: 0; B. signalgrass plant response rating ([3]; Rate 500 g/ha, Postemergence, scale of 0 to 10 where 0 is no effect and 10 is complete control): 0; Corn plant response rating [4, 17]: 0; Corn plant response rating [4, 18]: 0; Plant response rating, Corn [4, 19]: 0; Plant response rating, Corn [4, 20]: 0; Plant response rating, Corn [4, 21]: 0; Corn plant response rating [4, 22]: 0; Corn plant response rating [4, 23]: 0; Corn plant response rating [4, 24]: 0; Crabgrass plant response rating [5, 17]: 0; Crabgrass plant response rating [5, 18]: 3; Plant response rating, Crabgrass [5, 19]: 1; Plant response rating, Crabgrass [5, 20]: 6; Plant response rating, Crabgrass [5, 21]: 7; Crabgrass plant response rating [5, 22]: 7; Crabgrass plant response rating [5, 23]: 1; Crabgrass plant response rating [5, 24]: 8; Giant foxtail plant response rating [6, 17]: 0; Giant foxtail plant response rating [6, 18]: 2; Plant response rating, Giant foxtail [6, 19]: 6; Plant response rating, Giant foxtail [6, 20]: 9; Plant response rating, Giant foxtail [6, 21]: 10; Giant foxtail plant response rating [6, 22]: 10; Giant foxtail plant response rating [6, 23]: 0; Giant foxtail plant response rating [6, 24]: 3; Morningglory plant response rating [7, 17]: 0; Morningglory plant response rating [7, 18]: 0; Plant response rating, Morningglory [7, 19]: 0; Plant response rating, Morningglory [7, 20]: 0; Plant response rating, Morningglory [7, 21]: 0; Morningglory plant response rating [7, 22]: 0; Morningglory plant response rating [7, 23]: 0; Morningglory plant response rating [7, 24]: 1; Redroot pigweed plant response rating [8, 17]: 0; Redroot pigweed plant response rating [8, 18]: 0; Plant response rating, Redroot pigweed [8, 19]: 0; Plant response rating, Redroot pigweed [8, 20]: 0; Plant response rating, Redroot pigweed [8, 21]: 0; Redroot pigweed plant response rating [8, 22]: 0; Redroot pigweed plant response rating [8, 23]: 0; Redroot pigweed plant response rating [8, 24]: 0; Rape plant response rating [9, 17]: 0; Rape plant response rating [9, 18]: 0; Plant response rating, Rape [9, 19]: 0; Plant response rating, Rape [9, 20]: 0; Plant response rating, Rape [9, 21]: 0; Rape plant response rating [9, 22]: 0; Rape plant response rating [9, 23]: 0; Rape plant response rating [9, 24]: 0; Soybean plant response rating [10, 17]: 1; Soybean plant response rating [10, 18]: 1; Plant response rating, Soybean [10, 19]: 0; Plant response rating, Soybean [10, 20]: 0; Plant response rating, Soybean [10, 21]: 0; Soybean plant response rating [10, 22]: 0; Soybean plant response rating [10, 23]: 1; Soybean plant response rating [10, 24]: 1; Velvetleaf plant response rating [11, 17]: 0; Velvetleaf plant response rating [11, 18]: 0; Plant response rating, Velvetleaf [11, 19]: 0; Plant response rating, Velvetleaf [11, 20]: 0; Plant response rating, Velvetleaf [11, 21]: 0; Velvetleaf plant response rating [11, 22]: 0; Velvetleaf plant response rating [11, 23]: 0; Velvetleaf plant response rating [11, 24]: 0; Wheat plant response rating [12, 17]: 0; Wheat plant response rating [12, 18]: 0; Plant response rating, Wheat [12, 19]: 0; Plant response rating, Wheat [12, 20]: 0; Plant response rating, Wheat [12, 21]: 0; Wheat plant response rating [12, 22]: 0; Wheat plant response rating [12, 23]: 0; Wheat plant response rating [12, 24]: 0; Wild oats plant response rating [13, 17]: 0; Wild oats plant response rating [13, 18]: 0; Plant response rating, Wild oats [13, 20]: 0; Plant response rating, Wild oats [13, 21]: 2; Wild oats plant response rating [13, 22]: 2; Wild oats plant response rating [13, 23]: 0; Wild oats plant response rating [13, 24]: 0; Nutsedge plant response rating [14, 17]: 0; Nutsedge plant response rating [14, 18]: 0; Plant response rating, Nutsedge [14, 19]: 0; Plant response rating, Nutsedge [14, 20]: 0; Plant response rating, Nutsedge [14, 21]: 0; Nutsedge plant response rating [14, 22]: 0; Nutsedge plant response rating [14, 23]: 0; Nutsedge plant response rating [14, 24]: 0; Rice plant response rating [15, 17]: 0; Rice plant response rating ([15]; Rate 125 g/ha, Postemergence section (flood test species), scale 0 to 10, 0 no effect, 10 complete control): 0; Rice plant response rating [15, 25]: 0; Rice plant response rating [15, 26]: 0; Ducksalad plant response rating [16, 17]: 0; Ducksalad plant response rating [16, 25]: 0; Ducksalad plant response rating [16, 26]: 0
